Data set [1] concerns IL-2 production in human whole blood.
Another data set concerns AT-EAE model. Further details: species or system Lewis rats. As to conditions: rat, in vivo, sc.
In data set [2] the test system is IL-2R on T cells in human whole blood. Format: cell-based.
Data set [3] concerns IFN-g production in human whole blood. Type of data set: cell-based.
For data set [4] the following is noted: rat, in vivo, iv.
In data set [5] the test system is CD40L on T cells in human whole blood. Format: cell-based.
The subject of data set [6] is human PBMCs. Type of data set: cell-based.
In data set [7] the test system is human PBMCs. Type of data set: cell-based. The source holds these as a separate data set.
A further data set deals with human Kv1.3 channel (Homo sapiens, UniProt P22001). Format: cell-based.
Data set [8] has as its target Kv1.3 transfected HEK 293 cells (Homo sapiens, UniProt P22001). The data set is described as follows: Whole cell immunoassay (ELISA) on fixed HEK 293 cells overexpressing Kv1.3. Format: binding. How it is done: Our peptibody reagent can be a useful and convenient tool for monitoring Kv1.3 channel expression in patients and have utility in diagnostic applications. The procedure shown in FIG. 34A and FIG. 34B follows.
FIG. 34A. A whole cell immunoassay was performed to show binding of intact Fc-L10-ShK[1-35] to Kv1.3 transfected HEK 293 cells (BioFocus plc, Cambridge, UK). Parent HEK 293 cells or HEK Kv1.3 cells were plated at 3×10e4 cells/well in poly-D-Lysine coated ninety-six well plates (#35-4461; Becton-Dickinson, Bedford, Mass.). Cells were fixed with formalin (Sigma HT50-1-1 Formalin solution, diluted 1:1 with PBS/0.5% BSA before use) by removing cell growth medium, adding 0.2 ml/well formalin solution and incubating at room temperature for 25 minutes and then washing one time with 100 μl/well of PBS/0.5% BSA. Wells were blocked by addition of 0.3 ml/well of BSA blocker (50-61-00; KPL 10% BSA Diluent/Blocking Solution, diluted 1:1 with PBS; KPL, Gaithersburg, Md.) followed by incubation at room temperature, with shaking, for 3 hr. Plates were washed 2 times with 1×KP Wash Buffer (50-63-00; KPL). […] Absorbance was read at 450 nm on a Molecular Devices SpectroMax 340 (Sunnyvale, Calif.).
FIG. 34B. […] Absorbances were read at 405 nm after stopping reactions by addition of 0.1 ml/well of 1% SDS.
A general note: An ELISA detects its analyte on a solid surface through an enzyme-linked reagent.

Data set [9] deals with HEK 293 cells overexpressing human Kv1.3 (Homo sapiens, UniProt P22001). The data set is described as follows: Immunohistochemistry analysis of binding to HEK 293 cells overexpressing human Kv1.3. As to conditions: 5 μg/ml. As for the experimental part:
Immunohistochemistry analysis of Fc-L10-ShK[1-35] binding to HEK 293 cells overexpressing human Kv1.3. HEK 293 cells overexpressing human Kv1.3 (HEK Kv1.3) were obtained from BioFocus plc (Cambridge, UK) and maintained per manufacturer's recommendation. The parental HEK 293 cell line was used as a control. Cells were plated on Poly-D-Lysine 24 well plates (#35-4414; Becton-Dickinson, Bedford, Mass.) and allowed to grow to approximately 70% confluence. HEK KV1.3 were plated at 0.5×10e5 cells/well in 1 ml/well of medium. HEK 293 cells were plated at a density of 1.5×10e5 cells/well in 1 ml/well of medium. Before staining, cells were fixed with formalin (Sigma HT50-1-1 Formalin solution, diluted 1:1 with PBS/0.5% BSA before use) by removing cell growth medium, adding 0.2 ml/well formalin solution and incubating at room temperature for ten minutes. Cells were stained by incubating with 0.2 ml/well of 5 μg/ml Fc-L10-ShK[1-35] in PBS/BSA for 30′ at room temperature. Fc-L10-ShK[1-35] was aspirated and then the cells were washed one time with PBS/0.5% BSA. Detection antibody (Goat F(ab)2 anti-human IgG-phycoerythrin; Southern Biotech Associates, Birmingham, Ala.) was added to the wells at 5 μg/ml in PBS/0.5% BSA and incubated for 30′ at room temperature. Wash cells once with PBS/0.5% BSA and examine using confocal microscopy (LSM 510 Meta Confocal Microscope; Carl Zeiss AG, Germany). […]

Data set [10] relates to human PBMCs. Format: cell-based. The source holds these as a separate data set.

Entries after “also recorded” stand apart in the source; their conditions may differ. Some results are limits rather than exact numbers.

Chain of Kv1.3 transfected HEK 293 cells (P22001 whole entry): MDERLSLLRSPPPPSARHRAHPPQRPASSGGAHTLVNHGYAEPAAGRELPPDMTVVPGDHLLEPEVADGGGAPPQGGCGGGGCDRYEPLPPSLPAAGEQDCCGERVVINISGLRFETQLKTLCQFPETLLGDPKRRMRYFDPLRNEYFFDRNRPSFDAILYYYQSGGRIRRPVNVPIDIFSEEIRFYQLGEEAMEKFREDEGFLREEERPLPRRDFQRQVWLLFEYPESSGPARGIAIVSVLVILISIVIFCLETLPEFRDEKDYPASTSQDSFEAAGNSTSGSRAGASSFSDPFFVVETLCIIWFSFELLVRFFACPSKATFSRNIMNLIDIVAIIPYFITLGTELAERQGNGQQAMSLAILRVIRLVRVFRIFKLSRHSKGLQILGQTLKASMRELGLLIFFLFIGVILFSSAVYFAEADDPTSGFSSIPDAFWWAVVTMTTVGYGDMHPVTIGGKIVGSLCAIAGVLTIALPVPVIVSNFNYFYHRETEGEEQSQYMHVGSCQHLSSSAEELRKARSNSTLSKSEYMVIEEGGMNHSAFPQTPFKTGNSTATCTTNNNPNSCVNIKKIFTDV
Chain of human Kv1.3 channel (P22001 whole entry): as above
Chain of HEK 293 cells overexpressing human Kv1.3 (P22001 whole entry): as above

With `CC[C@H](C)[C@@H]1NC(=O)[C@@H](NC(=O)[C@H](CO)NC(=O)[C@@H](N)CCCNC(=N)N)CSSC[C@@H](C(=O)O)NC(=O)[C@H]([C@@H](C)O)NC(=O)CNC(=O)[C@@H]2CSSC[C@@H]3NC(=O)[C@H](CCC(N)=O)NC(=O)[C@H](Cc4ccccc4)NC(=O)[C@H](C)NC(=O)[C@H]([C@@H](C)O)NC(=O)[C@H](CSSC[C@H](NC(=O)[C@H](Cc4ccccc4)NC(=O)[C@H](CO)NC(=O)[C@H](CC(C)C)NC(=O)[C@H](CCCNC(=N)N)NC(=O)[C@H](Cc4ccc(O)cc4)NC(=O)[C@H](CCCCN)NC(=O)[C@H](CCSC)NC(=O)[C@H](CO)NC(=O)[C@H](Cc4cnc[nH]4)NC(=O)[C@H](CCCCN)NC3=O)C(=O)N[C@@H](CCCNC(=N)N)C(=O)N[C@@H](CCCCN)C(=O)N[C@@H]([C@@H](C)O)C(=O)N2)NC(=O)[C@H](CCCNC(=N)N)NC(=O)[C@H](CO)NC(=O)[C@H](CCCCN)NC(=O)[C@@H]2CCCN2C(=O)[C@H]([C@@H](C)CC)NC(=O)[C@H]([C@@H](C)O)NC(=O)[C@H](CC(=O)O)NC1=O` [ShK, reference compound], in data set [1], the “thapsigargin-induced IL-2 production (in words)” value was “suppressed”. Also, in the data set with AT-EAE model, the “average body weight lost” value was found to be 30 g; the “disease severity and survival (in words)” value is “developed severe disease and died”; the onset of disease was found to be 4 days. Besides, the “thapsigargin-induced upregulation of the IL-2R on T cells (in words)” value in data set [2] was “suppressed”. The “thapsigargin-induced IFN-g production (in words)” value in data set [3] is listed as “suppressed”. For the same compound, the “time with significant suppression of Kv1.3 current (<70 POC) by 5% serum Test solutions” value in [4] was at most 1 h. Moreover, the “thapsigargin-induced upregulation of CD40L on T cells (in words)” value in data set [5] was “suppressed”. The “inhibition of IFNγ production” value in the data set with human PBMCs [6] is given as “only a partial inhibition”. In addition, the “inhibition of IFNg production” value with human PBMCs [7] is reported as “only partial inhibition”. For the same compound, at human Kv1.3 channel, the “block of human Kv1.3 current (in words)” value is reported as “potently block Kv1.3”.

As to “Fc-L10-ShK[1-35]: Fc region of human IgG1 fused via L10 linker to Kv1.3 inhibitor peptide ShK[1-35]”, the “binding to fixed cells that overexpress Kv1.3” value in data set [8] is given as “dose-dependent increase in response; also recorded: high affinity binding to its target”. In addition, the “staining of HEK 293 cells stably transfected with human Kv1.3” value in data set [9] is listed as “stains HEK 293 cells stably transfected with human Kv1.3”. Also, the “thapsigargin-induced upregulation of the IL-2R on T cells (in words)” value in data set [2] is given as “suppressed”. For the same compound, the “inhibition of T cell proliferation” value in the data set on human PBMCs [10] is listed as “blocked T cell proliferation; also recorded: potently inhibits proliferation of T cells in a dose-dependent manner”. For the same compound, the “thapsigargin-induced upregulation of CD40L on T cells (in words)” value in [5] was “suppressed”. Further, the “inhibition of IFNγ production” value with human PBMCs [6] is on record as “complete inhibition of the response”. For the same compound, the “inhibition of IFNg production” value with human PBMCs [7] was “nearly complete inhibition”.

The record behind these values is patent US7825093B2 (priority 2006, dated 2010).
